Assay results taken from patent US6114318A, “17β-(2-oxo-tetrahydrofuranyl)-thio- substituted androstane derivatives” (Glaxo Group Limited, priority 1995, dated 2000).

Experiments:
Rat Ear Oedema = assay: Anti-Inflammatory Activity--Inhibition of Rat Ear Oedema (croton oil); type: in vivo; details: dose 100 μg, inner surface of ears, male rats, 6 hours
Experimental: (i) Anti-Inflammatory Activity--Inhibition of Rat Ear Oedema
The test compounds are dissolved in acetone and 40ul containing 5% croton oil is applied to the inner surface of each of the ears of 60-80 g male rats. Animals are killed 6 hours later and the ears are removed. Standard size (0.5 cm diameter) discs are punched out and the discs weighed. Mean weight of the ear discs is calculated and from this percentage inhibition of ear inflammation in relation to croton oil alone treated ears are calculated.

ACTH = assay: Systemic Effects--ACTH Suppression in Adrenalectomised Rats; type: in vivo, Male CD rats; details: single intra-tracheal, 4 h
Experimental: (ii) Systemic Effects--ACTH Suppression in Adrenalectomised Rats
Male CD rats (90-120 g) were adrenalectomised under Isoflurane anaesthesia and drinking water was supplemented with 0.9% saline. Four days later the animals receive a single intra-tracheal dose (under Isoflurane anaesthesia) of compound suspended in saline (containing 0.2% Tween-80, 0.2 ml) at 10am. After 4 h animals are sacrificed by administration of Euthetal and blood samples are taken by intra-cardiac puncture and collected into heparinised tubes. The samples are centrifuged (20 minutes at 1000 RPM at 4 deg C.), the plasma is collected and assayed by Radioimmunoassay (RIA) for Adrenocorticotrophic hormone (ACTH) using a DPC double antibody RIA kit. Intact and vehicle control groups were included in each experiment in order to account for diurnal variation in ACTH and effects of vehicle. Results are calculated with respect to the RIA standard curve and expressed as ACTH pg/ml plasma, allowing percentage reduction in ACTH to be calculated.

Compound: CC1(C)O[C@@H]2C[C@H]3[C@@H]4C[C@H](F)C5=CC(=O)C=C[C@]5(C)[C@@]4(F)[C@@H](O)C[C@]3(C)[C@]2(SC2CCOC2=O)O1 (single isomer, unassigned) [Example 2 Isomer A, 6α,9α-Difluoro-11β-hydroxy-16α,17α-isopropylidenedioxy-17β-(2-oxo-tetrahydro-furan-3-yl-sulfanyl)-androsta-1,4-dien-3-one]
- % Inhibition (ear inflammation) (Rat Ear Oedema): 56%
- % Reduction in ACTH (ACTH; dose 125 μg): 5%
- % Reduction in ACTH (ACTH; dose 250 μg): 29%
- % Reduction in ACTH (ACTH; dose 500 μg): 45%

Compound: CC1(C)O[C@@H]2C[C@H]3[C@@H]4C[C@H](F)C5=CC(=O)C=C[C@]5(C)[C@@]4(F)[C@@H](O)C[C@]3(C)[C@]2(S[C@H]2CCOC2=O)O1 (single isomer, unassigned) [Example 2 Isomer B, 6α,9α-Difluoro-11β-hydroxy-16α,17α-isopropylidenedioxy-17β-(2-oxo-tetrahydro-furan-3-yl-sulfanyl)-androsta-1,4-dien-3-one]
- % Inhibition (ear inflammation) (Rat Ear Oedema): 54%

Compound: CC1(C)O[C@@H]2C[C@H]3[C@@H]4C[C@H](F)C5=CC(=O)C=C[C@]5(C)[C@@]4(F)[C@@H](O)C[C@]3(C)[C@]2(C(=O)CO)O1 [Fluocinolone acetonide, reference compound]
- % Reduction in ACTH (ACTH; dose 1 μg): 49%
- % Reduction in ACTH (ACTH; dose 5 μg): 84%

Compound: CCC[C@@H]1O[C@@H]2C[C@H]3[C@@H]4C[C@H](F)C5=CC(=O)CC[C@]5(C)[C@@]4(F)[C@@H](O)C[C@]3(C)[C@]2(SC2CCOC2=O)O1 (single isomer, unassigned) [Example 3 Isomer A, 16α,17α-(R-Butylidenedioxy)-6α,9α-difluoro-11β-hydroxy-17β-(2-oxo-tetrahydro-furan-3-yl-sulfanyl)-androst-4-en-3-one]
- % Inhibition (ear inflammation) (Rat Ear Oedema): 55%
